# From US8822496B2, “Dosage regimens for HCV combination therapy” (priority 2009, dated 2014)
# Counter-ions that a name gives are not always drawn. Like-named read-outs stand apart in the source and are kept apart here.
# Columns and labels:
# HCV genotype-1 [1] = experiment: Clinical study with treatment-naive patients: monotherapy 14 days, then triple combination with P+R 14 days; details: for VL rebound during treatment: first 14 days of monotherapy, all dose groups
# Description: Plasma HCV-RNA levels were measured with Roche COBAS® TaqMan® assay (LLOQ 25 IU/m L). After Day 28, at the discretion of the investigator, patients could continue to receive standard of care treatment, i.e., P+R.
# HCV genotype-1 [2] = details: for Below Limit of Quantification at D 28 (number of patients) / Below Limit of Quantification at D 28 (percent of patients): less than 25 IU per ml of serum; for Virologic rebound during treatment (patients with rebound/patients in group) / Virologic rebound during treatment: first 28 days
# Description: All patients were monitored for safety and tolerability of study drugs. The primary endpoint was a ≧2 log 10 reduction in HCV viral load (VL) from baseline at any time up to Day 28. Plasma HCV-RNA levels were measured using the Roche COBAS® TaqMan® assay (LLOQ 25 IU/mL). The treatment experienced patients in this study included P+R null responders and partial respoders. After Day 28, at the discretion of the investigator, patients could continue to receive standard of care treatment, i.e., P+R.
# HCV NS3 protease = HCV NS3 protease inhibitor EC50 (background statement); type: cell-based
# [3] = Trough plasma concentration of Compound (1) with or without two-fold first loading dose; type: in vivo, human; details: TE patients; for Mean steady state trough of Days 10-29 / Geometric mean trough plasma concentration: + P+R
# Text: Trough (pre-dose) plasma samples were collected on Days 2, 3, 4, 6, 10, 14, 21, 28 and 29 following the initiation of combination treatment on Day 1.
# [4] = 240 mg QD SGC with first 480 mg loading dose, Day 3
# [5] = 240 mg QD SGC with first 480 mg loading dose, Day 4
# [6] = 240 mg QD SGC with first 480 mg loading dose, Day 6
# [7] = 240 mg QD solution (PiB) without loading dose, Day 3
# [8] = 240 mg QD solution (PiB) without loading dose, Day 4
# [9] = 240 mg QD solution (PiB) without loading dose, Day 6
smiles,measurement,setting,value
C=C[C@@H]1C[C@]1(NC(=O)[C@@H]1C[C@H](Oc2cc(-c3csc(NC(=O)C(C)C)n3)nc3c(Br)c(OC)ccc23)CN1C(=O)[C@@H](NC(=O)OC1CCCC1)C(C)(C)C)C(=O)O [Compound (1) sodium salt],Serious AE,"HCV genotype-1 [1]; 20 mg dose cohort, 6 days after initiating P+R","One serious AE, asthenia"
same,Discontinuation of treatment due to adverse events,HCV genotype-1 [1]; during monotherapy,No pts discontinued treatment
same,VL rebound during treatment,HCV genotype-1 [1],a majority of patients
same,VL rebound during treatment,HCV genotype-1 [1]; listed as Compound (1) (sodium salt),a majority of the patients
same,Tolerability,"HCV genotype-1 [1]; treatment-naive pts, 20-240 mg qd, monotherapy 14 days then + P+R 14 days",well tolerated
same,Maximal decline D 1-14,"HCV genotype-1 [2]; 48 mg QD, N = 6, + P+R",4.4 ×log10
same,Maximal decline D 1-14,"HCV genotype-1 [2]; 120 mg QD, N = 7, + P+R",4.5 ×log10
same,Mean Decline at D 14,"HCV genotype-1 [2]; 120 mg QD, N = 7, + P+R",4.3 ×log10
same,Virologic rebound during treatment,"HCV genotype-1 [2]; 240 mg qd + P+R, listed as Compound (1) (sodium salt)",no rebound
same,Serious or severe adverse events,"HCV genotype-1 [2]; 48-240 mg qd + P+R, 28 days",no serious or severe adverse events
same,Discontinuation of treatment due to an AE,HCV genotype-1 [2]; AE: anxiety,One subject discontinued treatment
same,Tolerability,"HCV genotype-1 [2]; treatment-experienced pts, 48-240 mg qd + P+R, 28 days",well tolerated
C=C[C@@H]1C[C@]1(NC(=O)[C@@H]1C[C@H](Oc2cc(-c3csc(NC(=O)C(C)C)n3)nc3c(Br)c(OC)ccc23)CN1C(=O)[C@@H](NC(=O)OC1CCCC1)C(C)(C)C)C(=O)O [Compound (1)],Mean steady state trough of Days 10-29,[3]; 240 mg QD SGC with first 480 mg loading dose,"5,774"
same,Geometric mean trough plasma concentration,[3]; [5],"5,640"
same,Geometric mean trough plasma concentration,[3]; [6],"7,060"
same,Geometric mean trough plasma concentration,"[3]; 240 mg QD SGC with first 480 mg loading dose, Day 10","6,580"
same,Geometric mean trough plasma concentration,"[3]; 240 mg QD SGC with first 480 mg loading dose, Day 14","5,590"
same,Geometric mean trough plasma concentration,"[3]; 240 mg QD SGC with first 480 mg loading dose, Day 21","5,410"
same,Geometric mean trough plasma concentration,"[3]; 240 mg QD SGC with first 480 mg loading dose, Day 28","5,960"
same,% of mean steady state trough of Days 10-29,[3]; [4],81.2%
same,% of mean steady state trough of Days 10-29,[3]; [5],97.7%
same,% of mean steady state trough of Days 10-29,[3]; [6],122.3%
same,Geometric mean trough plasma concentration,"[3]; 240 mg QD soft gelatin capsules (SGC) with a first 480 mg loading dose, Day 2","3,470"
same,Geometric mean trough plasma concentration,"[3]; 240 mg QD solution (PiB) without a first 480 mg loading dose, Day 2",710
same,Geometric mean trough plasma concentration,[3]; [8],"2,420"
same,Geometric mean trough plasma concentration,[3]; [9],"2,950"
same,Geometric mean trough plasma concentration,"[3]; 240 mg QD solution (PiB) without loading dose, Day 10","2,930"
same,Geometric mean trough plasma concentration,"[3]; 240 mg QD solution (PiB) without loading dose, Day 14","2,850"
same,% of mean steady state trough of Days 10-29,[3]; [7],49.2%
same,% of mean steady state trough of Days 10-29,[3]; [9],87.4%
same,Virologic rebound during treatment,HCV genotype-1 [2]; 240 mg qd + P+R,No rebound
